Source: ChEMBL document CHEMBL1134211, “8-Carboxamidocyclazocine analogues: redefining the structure-activity relationships of 2,6-methano-3-benzazocines” (Bioorg Med Chem Lett, 2001)
pKi: −log10 of the molar value.

Legend:
[1] = Displacement of [3H]naltrindole from Opioid receptor delta 1 of guinea pig brain membranes
Mu-type opioid receptor = Mu-type opioid receptor (Cavia porcellus, UniProt P97266); test: Displacement of [3H]DAMGO from Opioid receptor mu 1 of guinea pig brain membranes
[2] = target: Kappa-type opioid receptor (Cavia porcellus, UniProt P41144); test: Displacement of [3H]U-69593 from Opioid receptor kappa 1 of guinea pig brain membranes
Sequence of Kappa-type opioid receptor (P41144 whole entry): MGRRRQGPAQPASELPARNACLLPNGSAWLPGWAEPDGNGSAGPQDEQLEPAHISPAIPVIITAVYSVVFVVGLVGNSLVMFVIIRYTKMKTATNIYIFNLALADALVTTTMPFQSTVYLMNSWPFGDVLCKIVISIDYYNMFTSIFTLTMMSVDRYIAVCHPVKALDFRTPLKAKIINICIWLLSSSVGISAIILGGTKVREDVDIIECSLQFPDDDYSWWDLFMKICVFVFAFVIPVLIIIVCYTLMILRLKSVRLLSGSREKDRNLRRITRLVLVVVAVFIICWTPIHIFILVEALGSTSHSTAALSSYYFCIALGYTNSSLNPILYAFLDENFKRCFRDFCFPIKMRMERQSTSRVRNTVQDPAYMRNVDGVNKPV

Sequence of Mu-type opioid receptor (P97266 whole entry): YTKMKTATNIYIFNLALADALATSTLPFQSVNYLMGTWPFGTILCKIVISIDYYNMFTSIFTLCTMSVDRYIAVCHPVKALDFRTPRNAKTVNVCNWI

Row | Structure (SMILES) | pKi [1] | pKi (Mu-type opioid receptor) | pKi [2]
1 | C[C@@H]1[C@@H]2Cc3ccc(O)cc3[C@@]1(C)CN2CC1CC1 | 5.96 |  | 
2 | C[C@H]1C2Cc3ccc(C#N)cc3[C@@]1(C)CCN2CC1CC1 (mixture of isomers) |  | 6.27 | 
3 | CNC(=O)c1ccc2c(c1)[C@@]1(C)CCN(CC3CC3)C(C2)[C@@H]1C (mixture of isomers) |  | 7.62 | 8.59
4 | C[C@H]1C2Cc3ccc(C(=O)O)cc3[C@@]1(C)CCN2CC1CC1 (mixture of isomers) |  | 7.24 | 7.51
5 | COC(=O)c1ccc2c(c1)[C@@]1(C)CCN(CC3CC3)C(C2)[C@@H]1C (mixture of isomers) |  | 7.35 | 
6 | C[C@H]1C2Cc3ccc(C(=O)Nc4ccccc4)cc3[C@@]1(C)CCN2CC1CC1 (mixture of isomers) |  | 6.13 | 6.34
7 | C[C@H]1C2Cc3ccc(C(=O)N(C)C)cc3[C@@]1(C)CCN2CC1CC1 (mixture of isomers) |  | 5.52 | 5.60
8 | CC[C@@]12CCN(CC3CC3)C(C(=O)c3ccc(C(N)=O)cc31)[C@@H]2C (mixture of isomers) |  | 8.92 | 9.15
9 | C[C@H]1[C@H]2Cc3ccc(O)cc3[C@@]1(C)CCN2CC1CC1 (racemic) | 8.96 |  | 
